Assay results reported in patent US20240317884A1, “METHOD FOR ALLOWING IMMUNE CELLS INFILTRATION IN TUMORS” (Alethia Biotherapeutics Inc., priority 2021, published 2024).
Several values for one entry are separate records, joined by “and”; a condition that tells them apart may be missing. Identical values can stand only once. Entries after “also recorded” stand apart in the source; their conditions may differ.

How the values were obtained:
[1] = Non-clinical pharmacokinetics, single and repeat-dose, rats; assay type: in vivo; details: Sprague-Dawley rats; infusion
Excerpt: (§1) There was an approximate 70% increase in systemic exposure following repeated dosing from Day 1 to Day 26 which is consistent with the elimination half-life of AB-16B5 and the dosing intervals. […] The sCLU concentrations were generally back to their baseline levels after 3 to 5 days. The concurrent decrease in sCLU concentrations immediately following dosing with AB-16B5 is consistent with an antigen-sink phenomenon.

[2] = Non-clinical pharmacokinetics, single and repeat-dose, monkeys; assay type: in vivo; details: Rhesus monkeys
Excerpt: as §1

[3] = system: advanced solid malignancy; assay: Phase I study AB-16B5-101: tumor response (RECIST); assay type: in vivo, human
[4] = Phase I study AB-16B5-101: safety profile; assay type: in vivo, human
[5] = Phase I: detection of AB-16B5 in tumor biopsies; assay type: in vivo, human; details: for Detection of AB-16B5 in Tumor Biopsies, Post-Treatment Biopsy: 12.0 mg/kg, after dosing on Cycle 2 Day 15
Excerpt: (§2) Tumor biopsies were collected during the standard dose escalation to investigate the presence of AB-16B5 within the tumor. A total of 4 pre-treatment and 5 post-treatment tumor biopsies were suitable for analysis. These post-treatment tumor biopsies were collected following dosing on Cycle 2 Day 15 (between Cycle 2 Day 15 and Cycle 2 Day 18). The biopsy sites were liver (n=2), lymph node (n=2), bladder, skin and vulva.

E-cadherin, vimentin = assay: Phase I: immunohistochemistry on paired tumor biopsies (epithelial phenotype); assay type: in vivo, human
Protocol: (§3) Immunohistochemistry studies were conducted on paired tumor biopsies to determine if the treatment with AB-16B5 was associated with a reacquisition of an epithelial phenotype.

tumor biopsies = assay: Phase I: necrosis in tumor biopsies; assay type: in vivo, human; details: Subject 006; Breast; biopsy site Skin; 9.0 mg/kg
Protocol: as §2, §3

[6] = RECIST-evaluable population (14 subjects), 1.5-12.0 mg/kg
[7] = Subject 001, Pancreatic, 1.5 mg/kg weekly IV, 2 cycles
[8] = Subject 003, Soft Tissue Sarcoma, 6.0 mg/kg weekly IV, 2 cycles
[9] = Subject 005, Prostate, 6.0 mg/kg weekly IV, 2 cycles
[10] = Subject 010, Colorectal, 12.0 mg/kg weekly IV, 4 cycles
[11] = Subject 012, Breast, 12.0 mg/kg weekly IV, 2 cycles
[12] = Subject 013, Prostate, 12.0 mg/kg weekly IV, 2 cycles
[13] = Subject 014, Vulvar Melanoma, 12.0 mg/kg weekly IV, 2 cycles

With “AB-16B5: humanized IgG2 monoclonal antibody targeting sCLU; light chain SEQ ID NO:11, heavy chain SEQ ID NO:12” as the substance, how does the “systemic exposure over 24 hours with increasing dose levels” value [1] read?
The value was “dose proportional manner”.

What about the “systemic exposure with increasing dose levels” value [2] of the same substance?
The value was “generally greater than dose proportional”.

And the “drug accumulation in terms of Cmax” value ([2]; repeated dosing once or twice weekly)?
Its value is “no evidence of drug accumulation”.

What about the “best overall response progressive disease (PD), number of subjects” value [3, 6] of the same substance?
The value was 6 subjects.

And the “best overall response progressive disease (PD), share of subjects” value [3, 6]?
The value was 43%.

And the “best overall response stable disease (SD), number of subjects” value [3, 6]?
The value was 8 subjects.

And the “best overall response stable disease (SD), share of subjects” value [3, 6]?
Its value is 57%.

And the “Best Overall Response” value [3, 7]?
Its value is “PD (progressive disease (PD))”.

What about the “Tumor Response at Last Assessment Non-Target Lesions” value [3, 7] of the same substance?
The value was “PD (New (progressive disease (PD))”.

What about the “Tumor Response at Last Assessment Target Lesions” value [3, 7] of the same substance?
The value was “PD (progressive disease (PD))”.

What about the “Tumor Response at Last Assessment Target Lesions” value ([3]; Subject 002, Endometrium, 3.0 mg/kg weekly IV, 4 cycles) of the same substance?
Its value is “PD (progressive disease (PD))”.

What about the “Best Overall Response” value [3, 8] of the same substance?
Its value is “PD (progressive disease (PD))”.

And the “Tumor Response at Last Assessment Non-Target Lesions” value [3, 8]?
The value was “PD (New (progressive disease (PD))”.

What about the “Best Overall Response” value [3, 9] of the same substance?
The value was “PD (progressive disease (PD))”.

What about the “Tumor Response at Last Assessment Target Lesions” value [3, 9] of the same substance?
The value was “PD (progressive disease (PD))”.

And the “Tumor Response at Last Assessment Non-Target Lesions” value ([3]; Subject 007, Gastric, 9.0 mg/kg weekly IV, 8 cycles)?
Its value is “PD (New (progressive disease (PD))”.

What about the “Tumor Response at Last Assessment Non-Target Lesions” value ([3]; Subject 008, Thyroid, 9.0 mg/kg weekly IV, 4 cycles) of the same substance?
The value was “PD (New (progressive disease (PD))”.

And the “Tumor Response at Last Assessment Non-Target Lesions” value ([3]; Subject 009, Lung, 12.0 mg/kg weekly IV, 6 cycles)?
Its value is “PD (New (progressive disease (PD))”.

What about the “Tumor Response at Last Assessment Non-Target Lesions” value [3, 10] of the same substance?
The value was “PD (New (progressive disease (PD))”.

What about the “Tumor Response at Last Assessment Target Lesions” value [3, 10] of the same substance?
The value was “PD (progressive disease (PD))”.

What about the “Best Overall Response” value [3, 11] of the same substance?
Its value is “PD (progressive disease (PD))”.

What about the “Tumor Response at Last Assessment Non-Target Lesions” value [3, 11] of the same substance?
The value was “PD (progressive disease (PD))”.

And the “Best Overall Response” value [3, 12]?
The value was “PD (progressive disease (PD))”.

And the “Tumor Response at Last Assessment Non-Target Lesions” value [3, 12]?
Its value is “PD (New (progressive disease (PD))”.

What about the “Best Overall Response” value [3, 13] of the same substance?
The value was “PD (progressive disease (PD))”.

What about the “Tumor Response at Last Assessment Non-Target Lesions” value [3, 13] of the same substance?
Its value is “PD (New (progressive disease (PD))”.

And the “Tumor Response at Last Assessment Non-Target Lesions” value ([3]; Subject 015, Ovarian Cancer, 12.0 mg/kg weekly IV, 4 cycles)?
Its value is “PD (New (progressive disease (PD))”.

What about the “time on treatment with stable disease (SD) and clinical benefit” value ([3]; patient with advanced gastric cancer) of the same substance?
The value was 24 weeks.

What about the “subjects reporting SAEs” value ([4]; 5 of 15 subjects, all SAEs considered unrelated to AB-16B5) of the same substance?
Its value is 33%.

What about the “AEs reported, total” value ([4]; 15 subjects, all causalities) of the same substance?
The value was 167.

And the “dose at which weekly infusion was safe and well tolerated” value ([4]; 60-minute IV weekly infusion)?
The value was “up to 12 mg/kg”.

What about the dose-limiting toxicity ([4]; 60-minute IV weekly infusion, 1.5 to 12.0 mg/kg, 15 subjects) of the same substance?
Its dose-limiting toxicity is “No dose-limiting toxicity; also recorded: No dose-limiting toxicities”.

What about the “deaths reported in the study” value ([4]; Subjects 004 and 014, associated with progression of the disease) of the same substance?
Its value is “Two”.

What about the “number of SAEs” value ([4]; all considered unrelated to AB-16B5) of the same substance?
The value was 6 and 5.

And the “AEs of Grade 3 to 5” value ([4]; reported by 8 subjects)?
Its value is 12.

And the “subjects who discontinued the study due to an adverse event” value ([4]; two subjects (004, 011))?
Its value is 13%.

What about the “presence of AB-16B5 in all pre-treatment tumor biopsies” value ([5]; 4 pre-treatment biopsies, baseline) of the same substance?
Its value is “negative”.

And the “presence of AB-16B5 in all post-treatment tumor biopsies analyzed” value ([5]; 5 post-treatment biopsies)?
Its value is “confirmed”.

And the “Detection of AB-16B5 in Tumor Biopsies, Post-Treatment Biopsy” value (“Detection … Post-Treatment Biopsy” below) ([5]; Subject 009, Lung, biopsy site Liver)?
The value was “Positive”.

What about the “Detection … Post-Treatment Biopsy” value ([5]; Subject 010, Colorectal, biopsy site Liver) of the same substance?
Its value is “Positive”.

And the “Detection of AB-16B5 in Tumor Biopsies, Pre-Treatment Biopsy” value (shortened to “Detection … Pre-Treatment Biopsy”) ([5]; Subject 011, Colorectal, biopsy site Lymph node, baseline)?
Its value is “Negative”.

What about the “Detection … Post-Treatment Biopsy” value ([5]; Subject 012, Breast, biopsy site Skin) of the same substance?
Its value is “Positive”.

What about the “Detection … Pre-Treatment Biopsy” value ([5]; Subject 012, Breast, biopsy site Skin, baseline) of the same substance?
The value was “Negative”.

And the “Detection … Post-Treatment Biopsy” value ([5]; Subject 013, Prostate, biopsy site Bladder)?
Its value is “Positive”.

What about the “Detection … Pre-Treatment Biopsy” value ([5]; Subject 014, Vulvar melanoma, biopsy site Vulva, baseline) of the same substance?
Its value is “Negative”.

What about the “Detection … Post-Treatment Biopsy” value ([5]; Subject 015, Ovarian, biopsy site Lymph node) of the same substance?
Its value is “Positive”.

And the “Detection … Pre-Treatment Biopsy” value ([5]; Subject 015, Ovarian, biopsy site Lymph node, baseline)?
Its value is “Negative”.

What about the “E-cadherin Expression in Post-Treatment” value (E-cadherin, vimentin; Subject 006, Breast, biopsy site Skin, 9.0 mg/kg) of the same substance?
Its value is “Increase”.

What about the “E-cadherin Expression in Post-Treatment” value (E-cadherin, vimentin; Subject 007, Gastric, biopsy site Gastric, 9.0 mg/kg) of the same substance?
Its value is “Increase”.

And the “vimentin expression after treatment” value (E-cadherin, vimentin; Subject 007, advanced gastric cancer, paired tumor biopsies)?
Its value is “loss of vimentin expression”.

What about the “E-cadherin Expression in Post-Treatment” value (E-cadherin, vimentin; Subject 012, Breast, biopsy site Skin, 12.0 mg/kg) of the same substance?
The value was “Decrease”.

And the “E-cadherin Expression in Post-Treatment” value (E-cadherin, vimentin; Subject 013, Prostate, biopsy site Bladder, 12.0 mg/kg)?
Its value is “did not change; also recorded: No change”.

And the “Necrosis Post-Treatment” value (tumor biopsies)?
Its value is 10%.
